Numbers after ± are expanded uncertainties.
Settings: 298.15 K; 101.33 kPa; Liquid; Vibrating tube method
`C=C1CC[C@H]2C[C@@H]1C2(C)C` [(1S,5S)-6,6-dimethyl-2-methylenebicyclo[3.1.1]heptane] gave a mass density of 866.84 ± 0.3 kg/m3.
`C=C(C)[C@H]1CC=C(C)CC1` [(R)-1-methyl-4-(1-methylethenyl)cyclohexene] gave a mass density of 837.31 ± 0.85 kg/m3.
Work on `CCO` [ethanol] yielded a mass density of 785.24 ± 0.16 kg/m3.
In the case of `CC1=CC[C@H]2C[C@@H]1C2(C)C` [(S)-2-pinene], the mass density is reported as 853.88 ± 0.3 kg/m3.

— the NIST ThermoML archive (doi:10.1016/j.jct.2005.10.018)
